Laboratory results published in ChEMBL document CHEMBL2406981, “Novel pyrazoline amidoxime and their 1,2,4-oxadiazole analogues: synthesis and pharmacological screening” (Bioorg Med Chem Lett, 2013).
Values after ≈ are worked out from the molar mass of the structure shown.

Experiments:
Aspergillus flavus [1] = experiment: Antimicrobial activity against Aspergillus flavus MTCC 873 at 100 ug/ml after 24 hrs by agar disc diffusion method; assay type: functional; settings: MTCC 873, 24 h, read-out: DIZ
[2] = system: Radical scavenging activity; experiment: Antioxidant activity assessed as DPPH free radical scavenging activity at 10 ug/ml after 20 mins; assay type: functional
[3] = Antioxidant activity against ferric chloride-induced lipid peroxidation using egg lecithin at 0.25 ug/ml after 1 hr; assay type: functional
[4] = system: Radical scavenging activity; experiment: Antioxidant activity assessed as DPPH free radical scavenging activity at 50 ug/ml after 20 mins; assay type: functional
[5] = Antioxidant activity against ferric chloride-induced lipid peroxidation using egg lecithin at 100 ug/ml after 1 hr; assay type: functional
Klebsiella pneumoniae [6] = experiment: Antimicrobial activity against Klebsiella pneumoniae MTCC 3384 at 100 ug/ml after 24 hrs by agar disc diffusion method; assay type: functional; settings: MTCC 3384, 24 h, read-out: DIZ
Escherichia coli [7] = experiment: Antimicrobial activity against Escherichia coli MTCC 724; assay type: functional
[8] = Antioxidant activity assessed as reducing power of ferric ion at 50 ug/ml after 20 mins; assay type: functional; parameters: scale not given: the % may be the effect or the level left
[9] = Antioxidant activity assessed as reducing power of ferric ion at 10 ug/ml after 20 mins; assay type: functional; parameters: scale not given: the % may be the effect or the level left
Aspergillus niger [10] = experiment: Antimicrobial activity against Aspergillus niger MTCC 281 at 50 ug/ml after 24 hrs by agar disc diffusion method; assay type: functional; settings: MTCC 281, 24 h, read-out: DIZ
[11] = Antiinflammatory activity against heat-induced albumin denaturation at […] preincubated for 15 mins before heat induction by UV-vis spectrophotometer analysis; assay type: functional
Escherichia coli [12] = experiment: Antimicrobial activity against Escherichia coli MTCC 724 at 100 ug/ml after 24 hrs by agar disc diffusion method; assay type: functional; settings: MTCC 724, 24 h, read-out: DIZ
Shigella flexneri [13] = experiment: Antimicrobial activity against Shigella flexneri MTCC 1457 at 50 ug/ml after 24 hrs by agar disc diffusion method; assay type: functional; settings: MTCC 1457, 24 h, read-out: DIZ
[14] = Antioxidant activity against ferric chloride-induced lipid peroxidation using egg lecithin at 2.5 ug/ml after 1 hr; assay type: functional
[15] = Antioxidant activity against ferric chloride-induced lipid peroxidation using egg lecithin at 0.5 ug/ml after 1 hr; assay type: functional
Bacillus cereus [16] = experiment: Antimicrobial activity against Bacillus cereus MTCC 8372 at 50 ug/ml after 24 hrs by agar disc diffusion method; assay type: functional; settings: MTCC 8372, 24 h, read-out: DIZ
[17] = Antioxidant activity against ferric chloride-induced lipid peroxidation using egg lecithin at 0.75 ug/ml after 1 hr; assay type: functional
Bacillus cereus [18] = experiment: Antimicrobial activity against Bacillus cereus MTCC 8372; assay type: functional
[19] = system: Radical scavenging activity; experiment: Antioxidant activity assessed as DPPH free radical scavenging activity at 100 ug/ml after 20 mins; assay type: functional
Aspergillus flavus [20] = experiment: Antimicrobial activity against Aspergillus flavus MTCC 873; assay type: functional
Aspergillus niger [21] = experiment: Antimicrobial activity against Aspergillus niger MTCC 281; assay type: functional
Aspergillus flavus [22] = experiment: Antimicrobial activity against Aspergillus flavus MTCC 873 at 50 ug/ml after 24 hrs by agar disc diffusion method; assay type: functional; settings: MTCC 873, 24 h, read-out: DIZ
Shigella flexneri [23] = experiment: Antimicrobial activity against Shigella flexneri MTCC 1457 at 100 ug/ml after 24 hrs by agar disc diffusion method; assay type: functional; settings: MTCC 1457, 24 h, read-out: DIZ
[24] = Antioxidant activity against ferric chloride-induced lipid peroxidation using egg lecithin at 50 ug/ml after 1 hr; assay type: functional
Escherichia coli [25] = experiment: Antimicrobial activity against Escherichia coli MTCC 724 at 50 ug/ml after 24 hrs by agar disc diffusion method; assay type: functional; settings: MTCC 724, 24 h, read-out: DIZ
[26] = Antioxidant activity against ferric chloride-induced lipid peroxidation using egg lecithin at 0.1 ug/ml after 1 hr; assay type: functional
[27] = Antioxidant activity assessed as reducing power of ferric ion at 100 ug/ml after 20 mins; assay type: functional; parameters: scale not given: the % may be the effect or the level left
[28] = Antioxidant activity against ferric chloride-induced lipid peroxidation using egg lecithin at 1 ug/ml after 1 hr; assay type: functional
[29] = Antioxidant activity against ferric chloride-induced lipid peroxidation using egg lecithin at 5 ug/ml after 1 hr; assay type: functional
Klebsiella pneumoniae [30] = experiment: Antimicrobial activity against Klebsiella pneumoniae MTCC 3384; assay type: functional
Staphylococcus aureus [31] = experiment: Antimicrobial activity against Staphylococcus aureus MTCC 96 at 100 ug/ml after 24 hrs by agar disc diffusion method; assay type: functional; settings: MTCC 96, 24 h, read-out: DIZ
Klebsiella pneumoniae [32] = experiment: Antimicrobial activity against Klebsiella pneumoniae MTCC 3384 at 50 ug/ml after 24 hrs by agar disc diffusion method; assay type: functional; settings: MTCC 3384, 24 h, read-out: DIZ
Shigella flexneri [33] = experiment: Antimicrobial activity against Shigella flexneri MTCC 1457; assay type: functional
Staphylococcus aureus [34] = experiment: Antimicrobial activity against Staphylococcus aureus MTCC 96; assay type: functional
[35] = Antioxidant activity against ferric chloride-induced lipid peroxidation using egg lecithin at 10 ug/ml after 1 hr; assay type: functional
Bacillus cereus [36] = experiment: Antimicrobial activity against Bacillus cereus MTCC 8372 at 100 ug/ml after 24 hrs by agar disc diffusion method; assay type: functional; settings: MTCC 8372, 24 h, read-out: DIZ
[37] = Antioxidant activity against ferric chloride-induced lipid peroxidation using egg lecithin at 0.01 ug/ml after 1 hr; assay type: functional
[38] = Antioxidant activity against ferric chloride-induced lipid peroxidation using egg lecithin at 0.05 ug/ml after 1 hr; assay type: functional
Staphylococcus aureus [39] = experiment: Antimicrobial activity against Staphylococcus aureus MTCC 96 at 50 ug/ml after 24 hrs by agar disc diffusion method; assay type: functional; settings: MTCC 96, 24 h, read-out: DIZ
Aspergillus niger [40] = experiment: Antimicrobial activity against Aspergillus niger MTCC 281 at 100 ug/ml after 24 hrs by agar disc diffusion method; assay type: functional; settings: MTCC 281, 24 h, read-out: DIZ
[41] = Ratio of vitamin-E to compound for ferric chloride-induced lipid peroxidation; assay type: physicochemical

| MIC (Escherichia coli [7]) | MIC (Bacillus cereus [18]) | MIC (Aspergillus flavus [20]) | MIC (Aspergillus niger [21]) | SMILES | zone of inhibition at 100 µg/mL (Aspergillus flavus [1]) | Activity [2] | Activity [4] | inhibition [5] | zone of inhibition at 100 µg/mL (Klebsiella pneumoniae [6]) | Activity [8] | Activity [9] | zone of inhibition at 50 µg/mL (Aspergillus niger [10]) | inhibition [11] | zone of inhibition at 100 µg/mL (Escherichia coli [12]) | zone of inhibition at 50 µg/mL (Shigella flexneri [13]) | zone of inhibition at 50 µg/mL (Bacillus cereus [16]) | Activity [19] | zone of inhibition at 50 µg/mL (Aspergillus flavus [22]) | zone of inhibition at 100 µg/mL (Shigella flexneri [23]) | inhibition [24] | further results |
| --- | --- | --- | --- | --- | --- | --- | --- | --- | --- | --- | --- | --- | --- | --- | --- | --- | --- | --- | --- | --- | --- |
| 50 µg/mL (≈ 178 µM) | 50 µg/mL (≈ 178 µM) | 30 µg/mL (≈ 107 µM) | 50 µg/mL (≈ 178 µM) | N/C(=N\O)C1CC(c2ccccc2)=NN1c1ccccc1 (configuration not stated) | 4 mm | 16% | 28% | 14% | 8 mm | 12% | 8% | 2 mm | 61.7% | 7 mm | 3 mm | 2 mm | 51% | 4 mm | 10 mm | 15% | inhibition [3]: 8%; inhibition [14]: 14.7%; inhibition [15]: 8.2%; inhibition [17]: 8.5%; zone of inhibition at 50 µg/mL (Escherichia coli [25]): 2 mm; inhibition [26]: 8.4%; Activity [27]: 56%; inhibition [28]: 9.5%; inhibition [29]: 21%; MIC (Klebsiella pneumoniae [30]): 40 µg/mL (≈ 143 µM); zone of inhibition at 100 µg/mL (Staphylococcus aureus [31]): 6 mm; zone of inhibition at 50 µg/mL (Klebsiella pneumoniae [32]): 2 mm; MIC (Shigella flexneri [33]): 40 µg/mL (≈ 143 µM); MIC (Staphylococcus aureus [34]): 40 µg/mL (≈ 143 µM); inhibition [35]: 32%; zone of inhibition at 100 µg/mL (Bacillus cereus [36]): 3 mm; inhibition [37]: 0.7%; inhibition [38]: 1.3%; zone of inhibition at 50 µg/mL (Staphylococcus aureus [39]): 3 mm; zone of inhibition at 100 µg/mL (Aspergillus niger [40]): 3 mm |
| 15 µg/mL (≈ 50.6 µM) | 40 µg/mL (≈ 135 µM) | 35 µg/mL (≈ 118 µM) | 15 µg/mL (≈ 50.6 µM) | N/C(=N\O)C1CC(c2ccc(O)cc2)=NN1c1ccccc1 (configuration not stated) | 12 mm | 24% | 41% | 20% | 12 mm | 34% | 12% | 10 mm | 63.5% | 16 mm | 12 mm | 3 mm | 76% | 5 mm | 20 mm | 18% | zone of inhibition at 50 µg/mL (Escherichia coli [25]): 10 mm; Activity [27]: 79%; MIC (Klebsiella pneumoniae [30]): 20 µg/mL (≈ 67.5 µM); zone of inhibition at 100 µg/mL (Staphylococcus aureus [31]): 8 mm; zone of inhibition at 50 µg/mL (Klebsiella pneumoniae [32]): 8 mm; MIC (Shigella flexneri [33]): 10 µg/mL (≈ 33.7 µM); Ratio [41]: 3; MIC (Staphylococcus aureus [34]): 50 µg/mL (≈ 169 µM); inhibition [35]: 12%; zone of inhibition at 100 µg/mL (Bacillus cereus [36]): 3 mm; zone of inhibition at 50 µg/mL (Staphylococcus aureus [39]): 2 mm; zone of inhibition at 100 µg/mL (Aspergillus niger [40]): 14 mm |
